Measurements reported in the NIST ThermoML archive (doi:10.1016/j.jct.2018.08.036).

Assays:
[1] = xn = mol fraction of the nth substance listed; details: 100 kPa, Liquid; for viscosity: Falling or rolling sphere viscometry; for speed of sound: Frequency=3 MHz, Single path-length method; for mass density: Vibrating tube method
[2] = refractive index (Na D-line) (dimensionless); xn = mol fraction of the nth substance listed; details: 100 kPa, Liquid, Standard Abbe refractometry

CCCc1ccccc1 [propylbenzene] + CCCCCCCCCCCCCCCC
Details | mass density, [1] [kg/m3] | refractive index, [2] | speed of sound, [1] [m/s] | viscosity, [1] [mPa·s]
298.15 K, x2 = 0 | 858.45 | 1.4896 | 1320.6 | 0.792
298.15 K, x2 = 0.0627 | 846.52 | 1.4817 | 1317.3 | 0.872
298.15 K, x2 = 0.1009 | 840.12 | 1.4775 | 1315.7 | 0.928
298.15 K, x2 = 0.207 | 825.01 | 1.4677 | 1314.8 | 1.092
298.15 K, x2 = 0.3093 | 813.2 | 1.4602 | 1315.7 | 1.269
298.15 K, x2 = 0.3863 | 805.79 | 1.4554 | 1317.7 | 1.408
298.15 K, x2 = 0.5055 | 796.08 | 1.4492 | 1320.9 | 1.654
298.15 K, x2 = 0.5603 | 792.22 | 1.4467 | 1322.7 | 1.776
298.15 K, x2 = 0.7042 | 783.32 | 1.441 | 1327.7 | 2.114
298.15 K, x2 = 0.7728 | 779.76 | 1.4387 | 1330 | 2.291
298.15 K, x2 = 0.8468 | 776.25 | 1.4365 | 1332.8 | 2.505
308.15 K, x2 = 0 | 850.01 | 1.4844 | 1280.6 | 0.699
308.15 K, x2 = 0.0627 | 838.3 | 1.4766 | 1277.8 | 0.766
308.15 K, x2 = 0.1009 | 832.03 | 1.4724 | 1276.8 | 0.813
308.15 K, x2 = 0.207 | 817.19 | 1.4628 | 1276.4 | 0.949
308.15 K, x2 = 0.3093 | 805.67 | 1.4554 | 1277.9 | 1.09
308.15 K, x2 = 0.3863 | 798.39 | 1.4509 | 1279.9 | 1.203
308.15 K, x2 = 0.5055 | 788.78 | 1.4448 | 1283.6 | 1.396
308.15 K, x2 = 0.5603 | 784.97 | 1.4424 | 1285.4 | 1.495
308.15 K, x2 = 0.7042 | 776.34 | 1.4368 | 1290.5 | 1.761
308.15 K, x2 = 0.7728 | 772.78 | 1.4346 | 1292.9 | 1.886
308.15 K, x2 = 0.8468 | 769.24 | 1.4323 | 1295.7 | 2.05
318.15 K, x2 = 0 | 841.53 | 1.4792 | 1241 | 0.626
318.15 K, x2 = 0.0627 | 830.05 | 1.4713 | 1238.8 | 0.683
318.15 K, x2 = 0.1009 | 823.89 | 1.4673 | 1238.2 | 0.722
318.15 K, x2 = 0.207 | 809.33 | 1.4578 | 1238.5 | 0.835
318.15 K, x2 = 0.3093 | 798.09 | 1.4506 | 1240.4 | 0.952
318.15 K, x2 = 0.3863 | 790.87 | 1.4461 | 1242.7 | 1.044
318.15 K, x2 = 0.5055 | 781.4 | 1.4402 | 1246.6 | 1.2
318.15 K, x2 = 0.5603 | 777.68 | 1.4378 | 1248.6 | 1.28
318.15 K, x2 = 0.7042 | 769.05 | 1.4324 | 1253.6 | 1.485
318.15 K, x2 = 0.7728 | 765.61 | 1.4302 | 1256.2 | 1.585
318.15 K, x2 = 0.8468 | 762.23 | 1.428 | 1258.9 | 1.713

CCC(C)c1ccccc1 (centres undefined) [(1-methylpropyl)benzene] + CCCCCCCCCCCCCCCC
Details | mass density, [1] [kg/m3] | refractive index, [2] | speed of sound, [1] [m/s] | viscosity, [1] [mPa·s]
298.15 K, x2 = 0 | 857.89 | 1.4876 | 1313.8 | 0.912
298.15 K, x2 = 0.0702 | 846.08 | 1.4801 | 1312 | 1.004
298.15 K, x2 = 0.1382 | 836.12 | 1.4738 | 1311.4 | 1.112
298.15 K, x2 = 0.2541 | 821.7 | 1.4647 | 1312.4 | 1.33
298.15 K, x2 = 0.3113 | 815.5 | 1.4608 | 1313.7 | 1.449
298.15 K, x2 = 0.4028 | 806.76 | 1.4553 | 1316.1 | 1.644
298.15 K, x2 = 0.4757 | 800.6 | 1.4515 | 1318.4 | 1.793
298.15 K, x2 = 0.5349 | 796.04 | 1.4486 | 1320.7 | 1.924
298.15 K, x2 = 0.6167 | 790.37 | 1.4451 | 1323.2 | 2.101
298.15 K, x2 = 0.7476 | 782.25 | 1.4401 | 1328.3 | 2.387
298.15 K, x2 = 0.832 | 777.71 | 1.4373 | 1331.6 | 2.587
308.15 K, x2 = 0 | 849.78 | 1.4827 | 1274.5 | 0.796
308.15 K, x2 = 0.0702 | 838.16 | 1.4753 | 1273.2 | 0.874
308.15 K, x2 = 0.1382 | 828.35 | 1.469 | 1273.1 | 0.954
308.15 K, x2 = 0.2541 | 814.15 | 1.46 | 1274.7 | 1.128
308.15 K, x2 = 0.3113 | 808.04 | 1.4562 | 1276.1 | 1.223
308.15 K, x2 = 0.4028 | 799.42 | 1.4508 | 1278.8 | 1.375
308.15 K, x2 = 0.4757 | 793.34 | 1.447 | 1281.2 | 1.493
308.15 K, x2 = 0.5349 | 788.84 | 1.4441 | 1283.5 | 1.592
308.15 K, x2 = 0.6167 | 783.24 | 1.4407 | 1286.2 | 1.734
308.15 K, x2 = 0.7476 | 775.3 | 1.4358 | 1291.7 | 1.95
308.15 K, x2 = 0.832 | 770.73 | 1.433 | 1294.6 | 2.099
318.15 K, x2 = 0 | 841.64 | 1.4778 | 1235.7 | 0.707
318.15 K, x2 = 0.0702 | 830.21 | 1.4704 | 1235 | 0.771
318.15 K, x2 = 0.1382 | 820.55 | 1.4642 | 1235.3 | 0.838
318.15 K, x2 = 0.2541 | 806.57 | 1.4553 | 1237.4 | 0.975
318.15 K, x2 = 0.3113 | 800.55 | 1.4516 | 1239 | 1.05
318.15 K, x2 = 0.4028 | 792.05 | 1.4462 | 1241.9 | 1.174
318.15 K, x2 = 0.4757 | 786.06 | 1.4425 | 1244.5 | 1.275
318.15 K, x2 = 0.5349 | 781.7 | 1.4398 | 1246.8 | 1.356
318.15 K, x2 = 0.6167 | 776.09 | 1.4364 | 1249.7 | 1.468
318.15 K, x2 = 0.7476 | 768.18 | 1.4315 | 1254.5 | 1.642
318.15 K, x2 = 0.832 | 763.74 | 1.4288 | 1258.2 | 1.762
